Tests used:
Assay in all cases: relative viability (nuclei count vs DMSO), 5 days (fraction); higher = more cells survive
ABC-1 = system: ABC-1
Outline: (§1)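 After 5 days of treatment, lung cancer cells in 1536-well plates were fixed and stained in a single step (final 0.05% Triton X-100, 1% formaldehyde, 1 ug/ml Hoechst) and their nuclei counted on 4× images. Treatment had been applied by pin tool the day after seeding as one drug alone or as a fixed anchor-drug dose with five library-drug doses (not always all listed) in √10 steps. Relative viability is the nuclei count of treated wells divided by that of vehicle wells, and values are medians of duplicate plates.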

ChaGo-K-1 = system: ChaGo-K-1
Outline: as §1

HCC-366 = system: HCC-366
Outline: as §1

HCC-78 = system: HCC-78
Outline: as §1

LC-2-ad = system: LC-2-ad
Outline: as §1

LOU-NH91 = system: LOU-NH91
Outline: as §1

LU99A = system: LU99A
Outline: as §1

NCI-H1395 = system: NCI-H1395
Outline: as §1

NCI-H1651 = system: NCI-H1651
Outline: as §1

NCI-H1734 = system: NCI-H1734
Outline: as §1

NCI-H1755 = system: NCI-H1755
Outline: as §1

NCI-H1793 = system: NCI-H1793
Outline: as §1

NCI-H1944 = system: NCI-H1944
Outline: as §1

NCI-H2087 = system: NCI-H2087
Outline: as §1

NCI-H2170 = system: NCI-H2170
Outline: as §1

NCI-H2405 = system: NCI-H2405
Outline: as §1

NCI-H3122 = system: NCI-H3122
Outline: as §1

NCI-H460 = system: NCI-H460
Outline: as §1

PC-3 [JPC-3] = system: PC-3 [JPC-3]
Outline: as §1

RERF-LC-KJ = system: RERF-LC-KJ
Outline: as §1

UMC-11 = system: UMC-11
Outline: as §1

O=C(O)c1ccc(-c2c[nH]c3ncc(-c4ccccc4)cc23)cc1C1CCCC1 + Nc1ncn([C@H]2C[C@H](O)[C@@H](CO)O2)c(=O)n1 [Decitabine] (partner 2 µM)
relative viability (ABC-1; first compound 0.04 µM): 1.1 | relative viability (ABC-1; first compound 0.1265 µM): 1.1 | relative viability (ABC-1; first compound 0.4 µM): 0.891 | relative viability (ABC-1; first compound 1.265 µM): 0.931 | relative viability (ChaGo-K-1; first compound 0.04 µM): 0.515 | relative viability (ChaGo-K-1; first compound 0.1265 µM): 0.501 | relative viability (ChaGo-K-1; first compound 0.4 µM): 0.484 | relative viability (ChaGo-K-1; first compound 1.265 µM): 0.478 | relative viability (HCC-366; first compound 0.04 µM): 0.336 | relative viability (HCC-366; first compound 0.1265 µM): 0.342 | relative viability (HCC-366; first compound 0.4 µM): 0.363 | relative viability (HCC-366; first compound 1.265 µM): 0.3 | relative viability (HCC-78; first compound 0.1265 µM): 0.862 | relative viability (HCC-78; first compound 0.4 µM): 0.859 | relative viability (HCC-78; first compound 1.265 µM): 0.622 | relative viability (LC-2-ad; first compound 0.04 µM): 0.718 | relative viability (LC-2-ad; first compound 0.1265 µM): 0.756 | relative viability (LC-2-ad; first compound 0.4 µM): 0.737 | relative viability (LC-2-ad; first compound 1.265 µM): 0.651 | relative viability (LOU-NH91; first compound 0.04 µM): 0.815 | relative viability (LOU-NH91; first compound 0.1265 µM): 0.859 | relative viability (LOU-NH91; first compound 0.4 µM): 0.832 | relative viability (LOU-NH91; first compound 1.265 µM): 0.718 | relative viability (LU99A; first compound 0.04 µM): 0.88 | relative viability (LU99A; first compound 0.1265 µM): 0.837 | relative viability (LU99A; first compound 0.4 µM): 0.822 | relative viability (LU99A; first compound 1.265 µM): 0.576 | relative viability (NCI-H1395; first compound 0.04 µM): 0.727 | relative viability (NCI-H1395; first compound 0.1265 µM): 0.697 | relative viability (NCI-H1395; first compound 0.4 µM): 0.731 | relative viability (NCI-H1395; first compound 1.265 µM): 0.728 | relative viability (NCI-H1651; first compound 0.04 µM): 0.477 | relative viability (NCI-H1651; first compound 0.1265 µM): 0.616 | relative viability (NCI-H1651; first compound 0.4 µM): 0.57 | relative viability (NCI-H1651; first compound 1.265 µM): 0.54 | relative viability (NCI-H1734; first compound 0.04 µM): 0.528 | relative viability (NCI-H1734; first compound 0.1265 µM): 0.499 | relative viability (NCI-H1734; first compound 0.4 µM): 0.461 | relative viability (NCI-H1734; first compound 1.265 µM): 0.437 | relative viability (NCI-H1755; first compound 0.04 µM): 0.699 | relative viability (NCI-H1755; first compound 0.1265 µM): 0.753 | relative viability (NCI-H1755; first compound 0.4 µM): 0.713 | relative viability (NCI-H1755; first compound 1.265 µM): 0.705 | relative viability (NCI-H1793; first compound 0.04 µM): 0.434 | relative viability (NCI-H1793; first compound 0.1265 µM): 0.527 | relative viability (NCI-H1793; first compound 0.4 µM): 0.519 | relative viability (NCI-H1793; first compound 1.265 µM): 0.334 | relative viability (NCI-H1944; first compound 0.04 µM): 0.448 | relative viability (NCI-H1944; first compound 0.1265 µM): 0.437 | relative viability (NCI-H1944; first compound 0.4 µM): 0.423 | relative viability (NCI-H1944; first compound 1.265 µM): 0.402 | relative viability (NCI-H2087; first compound 0.04 µM): 0.263 | relative viability (NCI-H2087; first compound 0.1265 µM): 0.273 | relative viability (NCI-H2087; first compound 0.4 µM): 0.351 | relative viability (NCI-H2087; first compound 1.265 µM): 0.364 | relative viability (NCI-H2170; first compound 0.04 µM): 0.459 | relative viability (NCI-H2170; first compound 0.1265 µM): 0.478 | relative viability (NCI-H2170; first compound 0.4 µM): 0.437 | relative viability (NCI-H2170; first compound 1.265 µM): 0.437 | relative viability (NCI-H2405; first compound 0.04 µM): 0.71 | relative viability (NCI-H2405; first compound 0.1265 µM): 0.762 | relative viability (NCI-H2405; first compound 0.4 µM): 0.676 | relative viability (NCI-H2405; first compound 1.265 µM): 0.515 | relative viability (NCI-H3122; first compound 0.04 µM): 0.423 | relative viability (NCI-H3122; first compound 0.1265 µM): 0.431 | relative viability (NCI-H3122; first compound 0.4 µM): 0.471 | relative viability (NCI-H3122; first compound 1.265 µM): 0.428 | relative viability (NCI-H460; first compound 0.04 µM): 0.521 | relative viability (NCI-H460; first compound 0.1265 µM): 0.531 | relative viability (NCI-H460; first compound 0.4 µM): 0.468 | relative viability (NCI-H460; first compound 1.265 µM): 0.459 | relative viability (PC-3 [JPC-3]; first compound 0.04 µM): 0.824 | relative viability (PC-3 [JPC-3]; first compound 0.1265 µM): 0.835 | relative viability (PC-3 [JPC-3]; first compound 0.4 µM): 0.939 | relative viability (PC-3 [JPC-3]; first compound 1.265 µM): 0.74 | relative viability (RERF-LC-KJ; first compound 0.04 µM): 0.718 | relative viability (RERF-LC-KJ; first compound 0.1265 µM): 0.718 | relative viability (RERF-LC-KJ; first compound 0.4 µM): 0.596 | relative viability (RERF-LC-KJ; first compound 1.265 µM): 0.468 | relative viability (UMC-11; first compound 0.04 µM): 0.653 | relative viability (UMC-11; first compound 0.1265 µM): 0.565 | relative viability (UMC-11; first compound 0.4 µM): 0.497 | relative viability (UMC-11; first compound 1.265 µM): 0.626
